Source: US9012470B2 (Dart NeuroScience (Cayman) Ltd., priority 2010, dated 2015)

Tested on: benzodiazepine site of GABAA
Experiment: Binding assay, benzodiazepine site of GABAA (binding assay 1: rat brain, (3H)-flunitrazepam; binding assay 2: bovine hippocampal membranes, [3H]-RY80)
Conditions: radioligand binding; for % Inhibition at 0.1 μM: 0.1 μM test compound; for % Inhibition at 10 μM: 10 μM test compound
Description: The ability of a compound disclosed herein to act as ligand to the benzodiazepine site of GABAA can be determined using pharmacological models which are well known in the art using the following assay.
Binding assay 1: Whole brain (except cerebellum) of male Wistar derived rats weighing 175±25 g were used to prepare GABAA central benzodiazepine receptor in Na—K phosphate buffer pH 7.4. A 5 mg aliquot was incubated with 1 nM (^3H)-flunitrazepam for 60 minutes at 25° C. Experiments were performed in the presence or absence of 30 μM of GABA. Non-specific binding was estimated in the presence of 10 μM of diazepam. Membranes were filtered and washed, the filters were then counted to determine (^3H)-flunitrazepam specifically bound. Test compounds were tested in duplicate according to the required concentrations (Damm, H. W., et al. (1978) Res. Comm. Chem. Pathol. Pharmacol. 22: 597-560 incorporated herein in its entirety; Speth, R. C., et al. (1979) Life Sci. 24: 351-357 incorporated herein in its entirety).
Receptor Source: Bovine hippocampal membranes
Radioligand: [3H]-RY80 (40-80 Ci/mmol)
Final ligand concentration—[0.8 nM]
Non-specific Determinant: L-655,708—[0.5 μM]
Binding assay 2 followed procedures based on Li and Szabo (Li M., Szabo A., Rosenberg H. Evaluation of native GABAA receptors containing an α5 subunit. Eur. J. Pharmacol. 413: 63-72 (2001)). Incubation Conditions: Reactions are carried out in 50 mM Tris-Citrate (pH 7.8) containing 200 mM NaCl at 0-4° C. for 60 minutes. The reaction is terminated by rapid vacuum filtration onto glass fiber filters. Radioactivity trapped onto the filters is determined and compared to control values in order to ascertain any interactions of test compound with the benzodiazepine (central) binding site.

Row | SMILES | % Inhibition at 0.1 μM | % Inhibition at 10 μM
1 | CCCCNC(=O)n1ncc2c3nn(-c4cccc(C(F)(F)F)c4)c(=O)c-3c[nH]c21 [Compound 6aj, N-butyl-3-oxo-2-(3-(trifluoromethyl)phenyl)-2,3-dihydrodipyrazolo[3,4-b:3′,4′-d]pyridine-6(5H)-carboxamide] | C (C indicates % inhibition <20%) | B (B indicates % inhibition <80% and >20%)
2 | CC(C)NC(=O)n1ccc2c3nn(-c4ccccc4)c(=O)c-3c[nH]c21 [Compound 17c, N-Isopropyl-3-oxo-2-phenyl-2,3-dihydropyrazolo[3,4-d]pyrrolo[2,3-b]pyridine-6(5H)-carboxamide] | C (C indicates % inhibition <20%) | C (C indicates % inhibition <20%)
3 | CCNC(=O)n1ccc2c3nn(-c4ccccc4)c(=O)c-3c[nH]c21 [Compound 17b, N-Ethyl-3-oxo-2-phenyl-2,3-dihydropyrazolo[3,4-d]pyrrolo[2,3-b]pyridine-6(5H)-carboxamide] | C (C indicates % inhibition <20%) | B (B indicates % inhibition <80% and >20%)
4 | CCCCNC(=O)n1ncc2c3nn(-c4ccc(C(F)(F)F)cc4)c(=O)c-3c[nH]c21 [Compound 6ah, N-butyl-3-oxo-2-(4-(trifluoromethyl)phenyl)-2,3-dihydrodipyrazolo[3,4-b:3′,4′-d]pyridine-6(5H)-carboxamide] |  | B (B indicates % inhibition <80% and >20%)
5 | CNC(=O)n1ccc2c3nn(-c4ccccc4)c(=O)c-3c[nH]c21 [Compound 17a, N-Methyl-3-oxo-2-phenyl-2,3-dihydropyrazolo[3,4-d]pyrrolo[2,3-b]pyridine-6(5H)-carboxamide] | C (C indicates % inhibition <20%) | C (C indicates % inhibition <20%)
6 | CNC(=O)n1ncc2c3nn(-c4cccc(Cl)c4)c(=O)c-3c[nH]c21 [Compound 6ab, 2-(3-chlorophenyl)-N-methyl-3-oxo-2,3-dihydrodipyrazolo[3,4-b:3′,4′-d]pyridine-6(5H)-carboxamide] |  | A (A indicates % inhibition >80%)
7 | CCCCNC(=O)n1ncc2c3nn(-c4ccc(Cl)cc4F)c(=O)c-3c[nH]c21 [Compound 6ak, N-butyl-2-(4-chloro-2-fluorophenyl)-3-oxo-2,3-dihydrodipyrazolo[3,4-b:3′,4′-d]pyridine-6(5H)-carboxamide] | C (C indicates % inhibition <20%) | A (A indicates % inhibition >80%)
8 | CCCCNC(=O)n1ncc2c3nn(-c4ccccc4F)c(=O)c-3c[nH]c21 [Compound 6al, N-butyl-2-(2-fluorophenyl)-3-oxo-2,3-dihydrodipyrazolo[3,4-b:3′,4′-d]pyridine-6(5H)-carboxamide] | C (C indicates % inhibition <20%) | A (A indicates % inhibition >80%)
9 | CNC(=O)n1ncc2c3nn(-c4ccc(Br)cc4)c(=O)c-3c[nH]c21 [Compound 6az, 2-(4-bromophenyl)-N-methyl-3-oxo-2,3-dihydrodipyrazolo[3,4-b:3′,4′-d]pyridine-6(5H)-carboxamide] |  | A (A indicates % inhibition >80%)
10 | O=C(Nc1ccccc1)n1cc2[nH]cc3c(=O)n(-c4ccccc4)nc-3c2c1 [Compound 13k, 3-Oxo-N,2-diphenyl-2,3-dihydropyrazolo[3,4-d]pyrrolo[3,4-b]pyridine-7(5H)-carboxamide] | B (B indicates % inhibition <80% and >20%) | A (A indicates % inhibition >80%)
11 | CC(C)CNC(=O)n1ncc2c3nn(-c4ccc(F)cc4F)c(=O)c-3c[nH]c21 [Compound 6aq, 2-(2,4-difluorophenyl)-N-isobutyl-3-oxo-2,3-dihydrodipyrazolo[3,4-b:3′,4′-d]pyridine-6(5H)-carboxamide] | C (C indicates % inhibition <20%) | B (B indicates % inhibition <80% and >20%)
12 | CC(C)NC(=O)n1ncc2c3nn(-c4ccc(Cl)c(C(F)(F)F)c4)c(=O)c-3c[nH]c21 [Compound 6t, 2-(4-chloro-3-(trifluoromethyl)phenyl)-N-isopropyl-3-oxo-2,3-dihydrodipyrazolo[3,4-b:3′,4′-d]pyridine-6(5H)-carboxamide] |  | C (C indicates % inhibition <20%)
13 | CC(C)NC(=O)n1ncc2c3nn(-c4ccsc4)c(=O)c-3c[nH]c21 [Compound 6v, N-isopropyl-3-oxo-2-(thiophen-3-yl)-2,3-dihydrodipyrazolo[3,4-b:3′,4′-d]pyridine-6(5H)-carboxamide] |  | B (B indicates % inhibition <80% and >20%)
14 | CC(C)CCNC(=O)n1ncc2c3nn(-c4ccc(F)cc4F)c(=O)c-3c[nH]c21 [Compound 6ap, 2-(2,4-difluorophenyl)-N-isopentyl-3-oxo-2,3-dihydrodipyrazolo[3,4-b:3′,4′-d]pyridine-6(5H)-carboxamide] | C (C indicates % inhibition <20%) | A (A indicates % inhibition >80%)
15 | CCNC(=S)n1ncc2c3nn(-c4ccc(Br)cc4)c(=O)c-3c[nH]c21 [Compound 6at, 2-(4-bromophenyl)-N-ethyl-3-oxo-2,3-dihydrodipyrazolo[3,4-b:3′,4′-d]pyridine-6(5H)-carbothioamide] | A (A indicates % inhibition >80%) | A (A indicates % inhibition >80%)
16 | CC(C)NC(=O)n1ncc2c3nn(-c4ccc(Br)cc4)c(=O)c-3c[nH]c21 [Compound 6x, 2-(4-bromophenyl)-N-isopropyl-3-oxo-2,3-dihydrodipyrazolo[3,4-b:3′,4′-d]pyridine-6(5H)-carboxamide] |  | A (A indicates % inhibition >80%)
17 | O=C(Nc1ccccc1)n1ccc2c3nn(-c4ccccc4)c(=O)c-3c[nH]c21 [Compound 17d, 3-Oxo-N,2-diphenyl-2,3-dihydropyrazolo[3,4-d]pyrrolo[2,3-b]pyridine-6(5H)-carboxamide] | C (C indicates % inhibition <20%) | C (C indicates % inhibition <20%)
18 | CCNC(=O)n1cc2[nH]cc3c(=O)n(-c4ccc(Cl)cn4)nc-3c2c1 [Compound 13h, 2-(5-chloropyridin-2-yl)-N-ethyl-3-oxo-2,3-dihydropyrazolo[3,4-d]pyrrolo[3,4-b]pyridine-7(5H)-carboxamide] | A (A indicates % inhibition >80%) | A (A indicates % inhibition >80%)
19 | CCCCNC(=O)n1ncc2c3nn(-c4ccc(F)cc4F)c(=O)c-3c[nH]c21 [Compound 6an, N-butyl-2-(2,4-difluorophenyl)-3-oxo-2,3-dihydrodipyrazolo[3,4-b:3′,4′-d]pyridine-6(5H)-carboxamide] | B (B indicates % inhibition <80% and >20%) | A (A indicates % inhibition >80%)
20 | CC(C)CCNC(=O)n1ncc2c3nn(-c4ccccc4)c(=O)c-3c[nH]c21 [Compound 6g, N-isopentyl-3-oxo-2-phenyl-2,3-dihydrodipyrazolo[3,4-b:3′,4′-d]pyridine-6(5H)-carboxamide] | B (B indicates % inhibition <80% and >20%) | A (A indicates % inhibition >80%)
